In patent publication US20260125375A1 (Pfizer Inc., priority 2022, published 2026):

Legend:
[1] = target: T1, WT CBL-B (36-427) (Homo sapiens, UniProt Q13191); assay: Surface Plasmon Resonance (SPR) assay, binding affinity and kinetics, CBL-B; settings: SPR at 10° C., biotinylated WT CBL-B (36-427) on streptavidin chip; geometric mean; read-out: CBL-B SPR Kd (nM) GMean
T1 construct: N-terminal biotinylated WT CBL-B (36-427) and C-CBL (46-435) were captured on a streptavidin (SA) coated sensor chip
Description: (§1) Surface Plasmon Resonance (SPR) Assay
(§2) The purpose of the SPR assay is to evaluate the binding affinity and kinetics of the compound of disclosure binding to CBL-B and C-CBL.
(§3) The binding affinity and kinetics of compound binding to CBL-B and C-CBL were measured by Surface Plasmon Resonance (SPR) using either Biacore S200, 8K or 8K+ (Cytiva, Marlborough, MA) instruments. N-terminal biotinylated WT CBL-B (36-427) and C-CBL (46-435) were captured on a streptavidin (SA) coated sensor chip to achieve approximately 5000 to 6000 RUs of surface density. Un-functionalized SA surfaces with no immobilized protein served as reference for binding kinetic analysis. All the samples were prepared in buffer consisting of 10 mM HEPES, 150 mM NaCl, 0.05% Tween-20, 5% glycerol, […], 2% DMSO, pH 7.2. The same buffer was used as the running buffer during the experiments. Compound binding kinetics were measured in either multi-cycle or single-cycle kinetic format.
(§4) Multi-cycle kinetic analysis (MCK): A two-fold, 10-point serial dilution of test compounds was set-up in a 96-well microplate (Greiner; Cat #650101) with a top concentration of either 10 μM or 100 μM. Binding kinetics was measured at 10° C. by injecting serial dilution of compounds onto both reference and CBL immobilized channels at a flow rate of 100 μL/min and association time of 90 seconds. Compound dissociation was monitored for >400 seconds during each cycle. No additional regeneration was used. DMSO calibration curve was obtained before and after compound analysis by injecting 0-4% of DMSO in assay buffer. A suitable compound with known affinity and kinetics was tested once in every experiment as a positive control to assess activity of the captured proteins on the surface.
(§5) Single-cycle kinetic analysis (SCK): A 3-fold, 6-point serial dilution of compounds was set-up in a deep 96-well microplate (Greiner Bio; Cat #780201) with the highest concentration of 1 μM (concentration range: […]). Binding kinetics was measured at 10° C. by injecting serial dilutions of compounds in increasing order onto reference as well as CBL immobilized channels at a flow rate of 100 μL/min and association time of 120 seconds. Compound dissociation was monitored for >5400 seconds. Two buffer blanks were also run in a single-cycle kinetics format before the compound run for double referencing. No additional regeneration was used. DMSO calibration curve was obtained before and after compound analysis by injecting 0-4% of DMSO in the assay buffer. A suitable compound with known affinity and kinetics was tested once in every experiment as a positive control to assess activity of the captured proteins on the surface.

[2] = target: T2, CBL-B (residues 36-427) (Homo sapiens, UniProt Q13191); assay: Ligand Displacement Assay (LDA), HTRF competitive binding against BODIPY-labeled fluorescent tracer, CBL-B; settings: geometric mean of the number of tests, read-out: CBL-B Ki (nM) GMean
T2 construct: Purified CBL-B (residues 36-427) and C-CBL (residues 46-435) proteins from baculovirus-infected insect cells; made in house; host or cells: baculovirus-infected insect cells
Description: (§6) Ligand Displacement Assay (LDA)
(§7) The purpose of the homogeneous time-resolved fluorescence energy transfer (HTRF) ligand displacement assay is to determine whether the compounds of the disclosure are competitive with a BODIPY-labeled compound; “fluorescent tracer” aka [6-cyclopropyl-5-(17-{5-[(3,5-dimethyl-2H-pyrrol-2-ylidene-KN)methyl]-1H-pyrrol-2-yl-κN}-15-oxo-5,8,11-trioxa-2,14-diazaheptadecan-1-yl)-N-(3-{3-[(4-methyl-4H-1,2,4-triazol-3-yl)methyl]oxetan-3-yl}phenyl)pyridine-2-carboxamidato](difluorido)boron and to assess CBL-B binding selectivity over C-CBL. The synthesis of this fluorescent tracer compound is described below.
(§8) Purified CBL-B (residues 36-427) and C-CBL (residues 46-435) proteins from baculovirus-infected insect cells were biotin labeled on their amino-terminal AviTag™ epitopes by the E. coli biotin ligase BirA to bind terbium-labeled streptavidin (SA-Tb). After optimizing the assays and determining KD values for the fluorescent tracer to CBL-B and C-CBL, compounds were tested using three-fold serial dilutions in duplicate from a top concentration of […] with a final DMSO concentration of 2%. […] The Ki (nM) values reported are the geometric means (GMean) of the number of tests conducted.

[3] = target: T3, C-CBL (residues 46-435) (Homo sapiens, UniProt P22681); assay: Ligand Displacement Assay (LDA), HTRF competitive binding against BODIPY-labeled fluorescent tracer, C-CBL; settings: geometric mean of the number of tests, read-out: C-CBL Ki (nM) GMean
T3 construct: Purified CBL-B (residues 36-427) and C-CBL (residues 46-435) proteins from baculovirus-infected insect cells; made in house; host or cells: baculovirus-infected insect cells
T3 sequence (P22681 46-435): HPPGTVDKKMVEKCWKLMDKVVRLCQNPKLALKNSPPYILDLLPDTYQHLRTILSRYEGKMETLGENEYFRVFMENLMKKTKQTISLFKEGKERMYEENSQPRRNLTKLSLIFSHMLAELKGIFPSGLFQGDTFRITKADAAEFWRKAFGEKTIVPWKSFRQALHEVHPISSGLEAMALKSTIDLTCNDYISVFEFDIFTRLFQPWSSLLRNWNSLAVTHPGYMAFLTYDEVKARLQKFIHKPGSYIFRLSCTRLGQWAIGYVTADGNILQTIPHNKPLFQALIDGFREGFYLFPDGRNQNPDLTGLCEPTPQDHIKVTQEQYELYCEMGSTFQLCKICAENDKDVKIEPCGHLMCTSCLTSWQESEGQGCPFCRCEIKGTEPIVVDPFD
Description: as §6, §7, §8

[4] = target: T4, C-CBL (46-435) (Homo sapiens, UniProt P22681); assay: Surface Plasmon Resonance (SPR) assay, binding affinity and kinetics, C-CBL; settings: SPR at 10° C., biotinylated C-CBL (46-435) on streptavidin chip; geometric mean; read-out: C-CBL SPR Kd (nM) GMean
T4 construct: N-terminal biotinylated WT CBL-B (36-427) and C-CBL (46-435) were captured on a streptavidin (SA) coated sensor chip
T4 sequence (P22681 46-435): T3 sequence (P22681 46-435)
Description: as §1, §2, §3, §4, §5

Row | SMILES | Kd [1] | Ki [2] | Ki [3] | Kd [4]
1 | CCC(c1cccc(-c2n[nH]c3cnc(C(F)(F)F)cc23)c1)c1nncn1C (single isomer, unassigned) [Example A2, 3-{3-[(1ξ)-1-(4-methyl-4H-1,2,4-triazol-3-yl)propyl]phenyl}-5-(trifluoromethyl)-1H-pyrazolo[3,4-c]pyridine] | 35.8 nM | 80.4 nM | 224 nM | 251 nM
2 | CC(C)NC(C)c1nc(C(F)(F)F)cc2c(-c3cccc(C4(Cc5nncn5C)COC4)c3)n[nH]c12 (single isomer, unassigned) [Example C79, N-{(1ξ)-1-[3-(3-{3-[(4-methyl-4H-1,2,4-triazol-3-yl)methyl]oxetan-3-yl}phenyl)-5-(trifluoromethyl)-1H-pyrazolo[3,4-c]pyridin-7-yl]ethyl}propan-2-amine] | 3.2 nM | 20.4 nM | 94.1 nM | 121 nM
3 | CC(C)NC(C)c1nc(C(F)(F)F)cc2c(-c3cccc(C4(Cc5nncn5C)COC4)c3)n[nH]c12 (single isomer, unassigned) [Example C80, N-{(1ξ)-1-[3-(3-{3-[(4-methyl-4H-1,2,4-triazol-3-yl)methyl]oxetan-3-yl}phenyl)-5-(trifluoromethyl)-1H-pyrazolo[3,4-c]pyridin-7-yl]ethyl}propan-2-amine] | 1.7 nM | 10.1 nM | 71.5 nM | 68.5 nM
4 | CC(N[C@H]1CCOC1)c1nc(C(F)(F)F)cc2c(-c3cccc(C4(Cc5nncn5C)COC4)c3)n[nH]c12 (single isomer, unassigned) [Example C81] | 4.6 nM | 6.5 nM | 18.2 nM | 56.5 nM
5 | CC(N[C@H]1CCOC1)c1nc(C(F)(F)F)cc2c(-c3cccc(C4(Cc5nncn5C)COC4)c3)n[nH]c12 (single isomer, unassigned) [Example C82] | 2.3 nM | 5.2 nM | 23.3 nM | 17 nM
6 | CCNC(C)c1nc(C(F)(F)F)cc2c(-c3cccc(C4(Cc5nncn5C)COC4)c3)n[nH]c12 (single isomer, unassigned) [Example C83, (1ξ)-N-ethyl-1-[3-(3-{3-[(4-methyl-4H-1,2,4-triazol-3-yl)methyl]oxetan-3-yl}phenyl)-5-(trifluoromethyl)-1H-pyrazolo[3,4-c]pyridin-7-yl]ethan-1-amine] | 12.4 nM | 37.1 nM | 137 nM | 161 nM
7 | CCNC(C)c1nc(C(F)(F)F)cc2c(-c3cccc(C4(Cc5nncn5C)COC4)c3)n[nH]c12 (single isomer, unassigned) [Example C84, (1ξ)-N-ethyl-1-[3-(3-{3-[(4-methyl-4H-1,2,4-triazol-3-yl)methyl]oxetan-3-yl}phenyl)-5-(trifluoromethyl)-1H-pyrazolo[3,4-c]pyridin-7-yl]ethan-1-amine] | 5.8 nM | 25.1 nM | 144 nM | 99 nM
8 | CC(N[C@@H]1CCOC1)c1nc(C(F)(F)F)cc2c(-c3cccc(C4(Cc5nncn5C)COC4)c3)n[nH]c12 (single isomer, unassigned) [Example C85] | 2.1 nM | 15.2 nM | 92.5 nM | 82.5 nM
9 | CC(N[C@@H]1CCOC1)c1nc(C(F)(F)F)cc2c(-c3cccc(C4(Cc5nncn5C)COC4)c3)n[nH]c12 (single isomer, unassigned) [Example C86] | 5.1 nM | 9 nM | 49.4 nM | 60.3 nM
10 | Cn1cnnc1[C@@H](c1cccc(-c2n[nH]c3c(CNC4CCNC(=O)C4)nc(C(F)(F)F)cc23)c1)C1CCC1 (single isomer, unassigned) [Example C87] | 8.4 nM | 21.2 nM | 210 nM | 175 nM
11 | Cn1cnnc1[C@@H](c1cccc(-c2n[nH]c3c(CNC4CCNC(=O)C4)nc(C(F)(F)F)cc23)c1)C1CCC1 (single isomer, unassigned) [Example C88] | 4.8 nM | 7.2 nM | 132 nM | 59.7 nM
12 | CCNC(C)c1nc(C(F)(F)F)cc2c(-c3cccc([C@H](c4nncn4C)C4CCC4)c3)n[nH]c12 (single isomer, unassigned) [Example C90] | 5.1 nM | 9.4 nM | 93.3 nM | 169 nM
13 | CN1CCC[C@@H]1COc1nc(C(F)(F)F)cc2c(-c3cccc(C4(Cc5nncn5C)COC4)c3)n[nH]c12 [Example J6, 7-{[(2R)-1-methylpyrrolidin-2-yl]methoxy}-3-(3-{3-[(4-methyl-4H-1,2,4-triazol-3-yl)methyl]oxetan-3-yl}phenyl)-5-(trifluoromethyl)-1H-pyrazolo[3,4-c]pyridine] | – | 48.9 nM | 196 nM | –
14 | Cn1cnnc1CC1(c2cccc(-c3n[nH]c4c(OC5CCCC5)nc(C(F)(F)F)cc34)c2)COC1 [Example J7, 7-(cyclopentyloxy)-3-(3-{3-[(4-methyl-4H-1,2,4-triazol-3-yl)methyl]oxetan-3-yl}phenyl)-5-(trifluoromethyl)-1H-pyrazolo[3,4-c]pyridine] | – | 92 nM | 420 nM | –
15 | C[C@@H](N)c1nc(C(F)(F)F)cc2c(-c3cccc([C@H](c4nncn4C)C4CCCCC4)c3)n[nH]c12 [Example K1, (1R)-1-[3-{3-[(R)-cyclohexyl(4-methyl-4H-1,2,4-triazol-3-yl)methyl]phenyl}-5-(trifluoromethyl)-1H-pyrazolo[3,4-c]pyridin-7-yl]ethan-1-amine] | – | 36 nM | 289 nM | –
16 | C[C@H](N)c1nc(C(F)(F)F)cc2c(-c3cccc([C@H](c4nncn4C)C4CCCCC4)c3)n[nH]c12 [Example K2, (1S)-1-[3-{3-[(R)-cyclohexyl(4-methyl-4H-1,2,4-triazol-3-yl)methyl]phenyl}-5-(trifluoromethyl)-1H-pyrazolo[3,4-c]pyridin-7-yl]ethan-1-amine] | – | 48.6 nM | 287 nM | –
17 | C[C@H](NC(=O)OC(C)(C)C)c1nc(C(F)(F)F)cc2c(-c3cccc(C4(Cc5nncn5C)COC4)c3)n[nH]c12 [Example K8] | – | 33.4 nM | 133 nM | –
18 | CC(=O)NC(C)c1nc(C(F)(F)F)cc2c(-c3cccc([C@H](c4nncn4C)C4CCC4)c3)n[nH]c12 (stereo partly drawn) [Example M3] | – | 29 nM | 214 nM | –
